This data set has as its target human serum albumin (Homo sapiens, UniProt P02768). Put plainly: Protein binding to human serum albumin. Format: in vitro ADME.

The fraction unbound is free concentration divided by total concentration. High values mean weak binding, low ones extensive binding.

Molecules are shown by their SMILES.

Chain of human serum albumin (P02768 25-609): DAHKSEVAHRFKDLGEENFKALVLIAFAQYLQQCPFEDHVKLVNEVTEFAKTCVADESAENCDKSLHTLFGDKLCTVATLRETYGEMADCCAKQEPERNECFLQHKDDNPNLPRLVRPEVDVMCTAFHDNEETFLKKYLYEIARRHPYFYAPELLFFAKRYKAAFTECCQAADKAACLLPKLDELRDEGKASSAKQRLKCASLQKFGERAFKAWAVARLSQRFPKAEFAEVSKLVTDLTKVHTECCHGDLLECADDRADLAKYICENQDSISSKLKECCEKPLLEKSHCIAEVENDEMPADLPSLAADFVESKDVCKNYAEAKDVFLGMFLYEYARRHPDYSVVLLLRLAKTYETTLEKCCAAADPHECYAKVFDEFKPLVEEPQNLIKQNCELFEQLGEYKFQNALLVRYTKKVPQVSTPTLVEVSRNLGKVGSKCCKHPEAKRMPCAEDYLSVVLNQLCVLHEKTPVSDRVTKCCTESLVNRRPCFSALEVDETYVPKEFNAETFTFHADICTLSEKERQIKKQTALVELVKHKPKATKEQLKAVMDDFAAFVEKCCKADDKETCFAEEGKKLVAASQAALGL

`C=C(C)[C@@H]1CC[C@]2(C(=O)O)CC[C@]3(C)[C@H](CC[C@@H]4[C@@]5(C)CC[C@H](OC(=O)CC(C)(C)C(=O)O)C(C)(C)[C@@H]5CC[C@]43C)[C@@H]12` [Bevirimat, 3-O-(3′,3′-dimethylsuccinyl)betulinic acid] returned a fraction unbound of no more than 0.01.
